# Data reported in patent publication EP0091181A2, “Aroyl pyrrolizine compounds, process for their preparation and pharmaceutical compositions containing them” (BEECHAM GROUP PLC, priority 1982, dated 1983).
# Columns and labels:
# [1] = Therapeutic ratio from the carrageenin test and the gastric irritancy test; type: in vivo, rats; settings: from the two tests (gastric irritancy ED50 / carrageenin ED25)
# Protocol: (§1) Groups of 8 OLAC Wister male rats (140 - 170 g) received the compound of Example 1 orally 1 hour before 0.1 ml of 0.5% λ carrageenin injected into the right hind paw. Paw volumes were measured by mercury displacement 3 hours after carrageenin.
# (§2) Groups of OLAC Wistar female rats (130 - 160 g) were fasted overnight (18 hours) before receiving orally the compound of Example 1. 4 Hours later the stomachs were removed and inspected for the presence of erosion of the gastric mucosa.
# From these two tests the therapeutic ratio for the compound of formula (EI) was 41.0.
# OLAC Wister male rats = experiment: Carrageenin test (rat paw oedema); type: in vivo; settings: for Paw volume ± s.e. / % Inhi-bition: paw volume 3 hours after carrageenin; for Paw volume ± s.e.: control 85.8 ± 9.4
# Protocol: 1. Activity in the Carrageenin Test
# as §1
# Gastric irritancy test = type: in vivo, rats; settings: rat, in vivo, po
# Protocol: (§3) 2. Gastric Irritancy Test
# as §2
# OLAC Wistar female rats = experiment: Gastric irritancy test; type: in vivo; settings: fasted rats, stomachs inspected 4 hours later
# Protocol: as §3, §2
structure (smiles),measurement,setting,value
"CC(=O)CC1CCn2c(C(=O)c3ccccc3)ccc21 (centres unmarked) [Example 1, 1-(5-Benzoyl-2-3-dihydro-1H-pyrrolazin-1-yl)-propan-2-one]",therapeutic ratio,[1],41.0
same,ED25,"OLAC Wister male rats; Rattus norvegicus, oral, carrageenin paw volume, rats",0.75 mg/kg
same,Paw volume ± s.e.,OLAC Wister male rats; oral dose 0.1 mg/kg 1 hour before carrageenin,92.6 ± 4.6
same,% Inhi-bition,OLAC Wister male rats; oral dose 0.1 mg/kg,-8.0%
same,Paw volume ± s.e.,OLAC Wister male rats; oral dose 0.5 mg/kg 1 hour before carrageenin,73.4 ± 7.8
same,% Inhi-bition,OLAC Wister male rats; oral dose 0.5 mg/kg,14.4%
same,% Inhi-bition,OLAC Wister male rats; oral dose 2.5 mg/kg,47.4%
same,TD50 at 4 h,Gastric irritancy test,30.8 mg/kg
same,Proportion of rats with gas-tric erosions,OLAC Wistar female rats; oral dose 3.7 mg/kg,0/8
same,Proportion of rats with gas-tric erosions,OLAC Wistar female rats; oral dose 11.2 mg/kg,1/8
same,Proportion of rats with gas-tric erosions,OLAC Wistar female rats; oral dose 33.6 mg/kg,4/8
